The values that follow come from patent US20050232896A1, “Cd137 as a proliferation factor for hematopoietic stem cells” (priority 2001, published 2005).

Assay [1] deals with bone marrow cell population. The assay is described as follows: In vivo reconstitution of the hematopoietic system, protein A damage, bone marrow composition. More on the design: species or system NMRI mice. As to conditions: day 21, average of three mice. The text has this: CD137 needs to be immobilized onto a carrier or crosslinked to be functional according to the invention. Protein A was chosen as a carrier for in vivo studies, as it has been effective in crosslinking CD137-Fc in the experiment described in Example 3. CD137-Fc or Fc control protein were immobilized on protein A and injected into NMRI mice. Besides immobilizing CD137-Fe or Fc, protein A has the additional effect of being toxic for cells of the hematopoietic system. This latter activity of protein A exerts a damaging effect on the hematopoietic system of mice as does chemotherapy.
Three mice per group were used. Each mouse received 100 μg of immobilized CD137-Fc or an equimolar amount of immobilized Fc or protein A alone. Mice were killed after 3 weeks and the bone marrow was isolated from the femurs and analysed (Table 2).

Assay [2] relates to cells in the peripheral blood. Put plainly: In vivo reconstitution after Alkeran, absolute cell numbers in peripheral blood. Also noted: species or system NMRI mice. The conditions noted are these: after 21 days, average of three mice. The protocol: (§1) In the next experiment NMRI mice were treated with Alkeran, a cytotoxic drug regularly used for human cancer therapy. Alkeran was given i.p. on days 1, 3 and 5. Mice received 100 μg of CD137-Fc immobilized on protein A or equivalent amounts of immobilized Fc control protein. Three mice were used per group. The relative composition of the bone marrow cells (Table 3) and the absolute number of cells in the peripheral blood (Table 4) were determined after 21 days.

Another assay relates to Bone marrow cells. The assay is described as follows: In vivo reconstitution after Alkeran, bone marrow composition. As to conditions: Alkeran experiment, day 21, average of three mice. More on the design: species or system NMRI mice. The protocol:
as §1

In assay [3] the test system is erythroid lineage, human CD34+ progenitors. The assay is described as follows: CELISA lineage assay, erythroid lineage (glycophorin A). It is filed as cell-based. The conditions noted are these: growth factors present. As for the experimental part:
(§2) The effects of CD137 on the different hematopoietic lineages were evaluated using a cell based immunoassay, which quantifies expression of lineage-specific markers (CELISA, BioWhittaker, Walkersville, Md., USA).
(§3) Progenitors for the myeloid and erythroid lineages were normal human CD34+ cells, which had been isolated from the bone marrow of healthy volunteers by positive selection using the “Direct CD34 Progenitor Kit” (Miltenyi, Bergisch Gladbach, Germany). Progenitors for the megakaryocyte lineage were normal human CD34+ cells, which had been isolated from the peripheral blood of healthy G-CSF-treated volunteers.
(§4) 96-well polystyrene plates were precoated with four dilutions of CD137-Fc or Fc control protein at 4° C. overnight or with the dilution buffer PBS. The following additional controls were included in the experiment: no addition; Camptothecin, a cytotoxic compound, at 0.005 μM (condition 1) and at 0.5 μM (condition 2); stem Cell Factor (SCF) at a concentration of 125 ng/ml. […]

Assay [4] has as its system myeloid lineage, human CD34+ progenitors. The assay is described as follows: CELISA lineage assay, myeloid lineage (CD11b). Type of assay: cell-based. The conditions noted are these: growth factors present. The protocol:
as §2, §3
96-well polystyrene plates were precoated with four dilutions of CD137-Fc or Fc control protein at 4° C. overnight or with the dilution buffer PBS. […]
In this example, the influence of growth factor concentrations and potential additive or synergistic effects of these growth factors with CD137 were analysed in more detail. […]
Differentiation was assessed per CELISA (BioWhittaker), measuring the expression of the myeloid-specific protein CD11b. Proliferation was determined using the ViaLight system (BioWhittaker), which measures the amount of ATP in the culture. […]

Assay [5] relates to megakaryocyte lineage, human CD34+ progenitors. Put plainly: CELISA lineage assay, megakaryocyte lineage (CD41a). The conditions noted are these: growth factors present. Type of assay: cell-based. As for the experimental part: as §2, §3, §4

Turning to “Protein A: carrier for crosslinking CD137-Fc; toxic for cells of the hematopoietic system”, in assay [1], the “R1 (91% erythroid)” value is listed as 69.18 Percentage of total cells; the “R3 (49% undifferentiated blasts, 25% lymphoblasts, 18% basophil erythroblasts)” value was 1.81 Percentage of total cells; the “R4 (50% undifferentiated blasts, 30% myeloid mainly und. precursors, 20% erythroid)” value is given as 1.97 Percentage of total cells; the “R5 (91% granulocytes)” value is 1.12 Percentage of total cells. Moreover, in assay [1], the “R6 (74% monocytes, 20% myeloid precursors)” value was 0.63 Percentage of total cells. In assay [1] (listed as protein A), the “R5 (91% granulocytes)” value is reported as “reduced drastically” and the “R6 (74% monocytes, 20% myeloid precursors)” value is “reduced drastically”.

Turning to `N[C@@H](Cc1ccc(N(CCCl)CCCl)cc1)C(=O)O` [Alkeran], in assay [2], the “Total number of leukocytes in the peripheral blood” value is 830 per μl and the “Total number of thrombocytes in the peripheral blood” value came to 581.000 per μl. Moreover, in the assay on Bone marrow cells, the R1 is listed as 60.21 Percentage of total cells, the R3 is 0.66 Percentage of total cells and the R4 is listed as 2.28 Percentage of total cells.

Turning to `CC[C@@]1(O)C(=O)OCc2c1cc1n(c2=O)Cc2cc3ccccc3nc2-1` [Camptothecin], the results for the “growth inhibition, erythroid lineage” value in assay [3] (0.005 uM) and in assay [3] (0.05 uM) were “minimal growth inhibition” and “inhibited growth to a greater extent”, respectively. Besides, the “growth inhibition, myeloid lineage” value in assay [4] (0.005 uM) is recorded as “minimal growth inhibition”; in assay [4] (0.05 uM) it was “inhibited growth to a greater extent”. Further, the “growth inhibition, megakaryocyte lineage” value in assay [5] (0.005 uM) is listed as “minimal growth inhibition”; in assay [5] (0.05 uM), “inhibited growth to a greater extent”.
